In paper PMC12648092 (Acta Pharmaceutica Sinica. B, 2025):

Target: AChE (Homo sapiens, UniProt P22303)
Assay: ROCMCBs

Chain of AChE (P22303 32-617 isoform P22303-2 limits assumed): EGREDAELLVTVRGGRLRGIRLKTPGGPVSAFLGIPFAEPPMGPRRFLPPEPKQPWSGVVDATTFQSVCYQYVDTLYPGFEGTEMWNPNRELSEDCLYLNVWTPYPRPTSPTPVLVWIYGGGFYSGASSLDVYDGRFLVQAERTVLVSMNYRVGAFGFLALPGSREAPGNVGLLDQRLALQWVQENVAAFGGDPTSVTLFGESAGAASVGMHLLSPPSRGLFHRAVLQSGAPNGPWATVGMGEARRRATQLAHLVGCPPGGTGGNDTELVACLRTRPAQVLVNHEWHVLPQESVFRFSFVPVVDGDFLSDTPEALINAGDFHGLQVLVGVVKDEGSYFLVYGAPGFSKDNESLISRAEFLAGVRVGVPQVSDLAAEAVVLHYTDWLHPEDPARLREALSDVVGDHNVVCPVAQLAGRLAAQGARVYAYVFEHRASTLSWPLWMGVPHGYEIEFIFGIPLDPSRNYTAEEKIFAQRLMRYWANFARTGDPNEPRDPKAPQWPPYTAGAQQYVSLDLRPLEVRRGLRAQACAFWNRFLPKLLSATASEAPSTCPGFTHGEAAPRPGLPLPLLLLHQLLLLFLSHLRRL

OCc1ccc(O[C@@H]2O[C@H](CO)[C@@H](O)[C@H](O)[C@H]2O)cc1 [gastrodin]
IC50: 3.2 µM

COC(=O)C1=CO[C@@H](O[C@@H]2O[C@H](CO)[C@@H](O)[C@H](O)[C@H]2O)[C@@H]2C(CO)=CC[C@H]12 [geniposide]
IC50: 8.3 µM

O=C(O)[C@H]1O[C@@H](Oc2cc3oc(-c4ccccc4)cc(=O)c3c(O)c2O)[C@H](O)[C@@H](O)[C@@H]1O [baicalin]
IC50: 12.2 µM

CC[C@H]1CN2CC[C@]3(C(=O)Nc4ccccc43)[C@@H]2C[C@@H]1/C(=C\OC)C(=O)OC [rhynchophylline]
IC50: 66.3 µM
